Results: patent publication EP4772530A1, “PEPTIDE TARGETING SOMATOSTATIN RECEPTOR, DRUG CONJUGATE AND USE THEREOF” (Mainline Biosciences (Shanghai) Co., Ltd., priority 2023, dated 2025)
Where “and” joins values, the source holds several entries; their conditions need not be identical. Equal entries are not always repeated. Structures can show the parent of a compound that is named as a salt. *1 amine or outer side, *2 acyl side, *3 side chain or, on linkers, in order; H or OH if unused. Where a SMILES comes first, the peptide text is derived from it. Bridges are numbered along the chain shown (N, C = ends). Roman numbers before positions name the chains, in order. [ ]: non-standard residue; d: D form. The star is where a group is joined. Hexanoyl(6-succinimido-3yl) = O=C1CC([*:1])C(=O)N1CCCCCC(=O)[*:2]; Dolaproine = CO[C@@H]([C@@H]1CCCN1)[C@@H](C)C(=O)O; Dil = CC[C@H](C)[C@H](NC)[C@@H](CC(=O)O)OC; PABC = O=C(OCc1ccc(N[*:1])cc1)[*:2]; PEG6 = NCCOCCOCCOCCOCCOCCOCCC(=O)O; X2 = C[C@@H](N*)[C@@H](O)c1ccccc1; Cit = NC(=O)NCCC[C@H](N)C(=O)O; NMeV = CN[C@H](C(=O)O)C(C)C; AEEA = NCCOCCOCC(=O)O

Assays:
SSTR2 = target: T1, SSTR2 (Homo sapiens, UniProt P30874); test: SSTR2 cAMP test; format: cell-based; conditions: for EC50: SSTR2/CHO cells, Forskolin, cAMP activation rate; for activity at 50 µM: Max Dose 50000 nM
T1 construct: expressed in transfected cells; host or cells: CHO cells (SSTR2/CHO)
Experimental: • 1) Compound preparation: The test compound was diluted by 4-fold with DMSO to obtain 10 different concentration points. Approximately 100 nL of the diluted compound was then transferred to a cell reaction plate and centrifuged for later use. • 2) Cell preparation:The cultured SSTR2/CHO cells were collected into a sterile centrifuge tube, and the supernatant was discarded by centrifugation. • 3) The cells were resuspended in assay buffer, counted using a Vi-cell counter, and diluted with assay buffer. • 4) Approximately 100 nL of 100 µM Forskolin was transferred into the cell reaction plate using an Echo and centrifuged. Then, 10 µL of assay buffer containing the cells was added and incubated. • 5) Approximately 10 µL of cAMP detection reagent solution was added to the corresponding wells of the cell reaction plate, and incubated at room temperature in the dark. • 6) The plate was read using a microplate reader. The final value was determined as the ratio of OD at 665 nm to that at 615 nm. • 7) The cAMP value was calculated for each well: Activity (%)=(signal value of sample well - mean signal value of low-signal control wells)/ (mean signal value of high-signal control wells - mean signal value of low-signal control wells). Fitting was performed using the "Nonlinear regression (curve fit)-log(agonist) vs. response -- Variable slope" model in GraphPad Prism 5.0, with the log-transformed compound concentration on the x-axis and cAMP activation rate on the y-axis. The EC50 value of the sample was calculated accordingly. Table 2: SSTR2 cAMP Test Results

[1] = tested on: Human multiple myeloma MM.1S cells; test: EX3.3 in vivo pharmacodynamics, MM.1S subcutaneous xenograft model; set-up: species or system CB17 SCID mice; conditions: for Tumor Volume (Mean ± SEM): Ixazomib Citrate 4 mg/kg, Oral Gavage, Twice Weekly
Experimental: Human multiple myeloma MM.1S cells were suspended and cultured in vitro in 1640 medium containing 10% fetal bovine serum, 100 U/mL penicillin, and 100 µg/mL streptomycin in a 5% CO2 incubator at 37°C. The suspended cells were collected by centrifugation twice a week and adherent cells were digested with trypsin-EDTA to prepare a cell suspension for subculture. When the cell saturation was 80%-90% and the cell number reached the requirement, the cells were collected, counted, and inoculated.
CB17 SCID mice, female, 6-8 weeks old, weighing 18-22 g, provided by Zhejiang Vital River Laboratory Animal Technology Co., Ltd.
Each mouse was subcutaneously injected with 100 µL of PBS containing 5×10^6 MM.1S cells + 100 µL of Matrigel (final volume: 200 µL) at the axilla of the right forelimb. At 20 days after injection, when the average tumor volume reached 109 mm^3, mice were grouped for dosing (vehicle control,Ixazomib Citrate, and Example 1 treatment groups, with 6 animals per group). The Ixazomib Citrate group was orally administered by gavage (4 mg/kg) twice a week; the vehicle control group (5%DMSO + 95% normal saline) and the Example 1 treatment group (1.75 mg/kg) were slowly intravenously injected for about 30 seconds each time, twice a week.
The experimental indicators were used to investigate whether tumor growth was inhibited, delayed, or cured. The tumor diameter was measured twice a week using a vernier caliper. The tumor volume was calculated as follows: V = 0.5a×b^2, where a and b were the long and short diameters of the tumor, respectively.
The anti-tumor efficacy of the drug was evaluated based on TGI (%) or relative tumor proliferation rate T/C (%). TGI (%) was the tumor growth inhibition rate. TGI (%) was calculated as follows: TGI (%)=[(1 -(mean tumor volume at the end of dosing in a certain treatment group - mean tumor volume at the start of dosing in the treatment group))/ (mean tumor volume at the end of dosing in the vehicle control group - mean tumor volume at the start of dosing in the vehicle control group)]× 100%.
T/C (%) was calculated as follows:T/C (%)= TRTV/ CRTV× 100 %. Based on the results of tumor measurement, the relative tumor volume (RTV) was calculated as follows: RTV = Vt/V0, where V0 was the mean tumor volume measured at the time of grouping (i.e. d0), and Vt was the mean tumor volume at a certain measurement. Data on the same day were taken for TRTV and CRTV.
Tumor weights were measured at the end of the experiment and T/Cweight was calculated, where Tweight and Cweight were tumor weights in the treatment and vehicle control groups, respectively.
Statistical analysis, including the mean and standard error (SEM) of tumor volume at each time point in each group (see Table 5-1 in Section 5.2 for specific data), was performed to evaluate differences between groups based on data from the treatment group on Day 18 post-dose at the end of the experiment. A t-test was used for comparison between two groups, and one-way ANOVA was used for comparison among three or more groups. If there was a significant difference in F value, the Games-Howell method was used for testing; if there was no significant difference in F value, the Dunnet (2-sided) method was used for analysis. All data were analyzed using SPSS 17.0.

[2] = 18 days after the start of dosing, Ixazomib Citrate 4 mg/kg oral gavage twice a week

T1 sequence (P30874 whole entry): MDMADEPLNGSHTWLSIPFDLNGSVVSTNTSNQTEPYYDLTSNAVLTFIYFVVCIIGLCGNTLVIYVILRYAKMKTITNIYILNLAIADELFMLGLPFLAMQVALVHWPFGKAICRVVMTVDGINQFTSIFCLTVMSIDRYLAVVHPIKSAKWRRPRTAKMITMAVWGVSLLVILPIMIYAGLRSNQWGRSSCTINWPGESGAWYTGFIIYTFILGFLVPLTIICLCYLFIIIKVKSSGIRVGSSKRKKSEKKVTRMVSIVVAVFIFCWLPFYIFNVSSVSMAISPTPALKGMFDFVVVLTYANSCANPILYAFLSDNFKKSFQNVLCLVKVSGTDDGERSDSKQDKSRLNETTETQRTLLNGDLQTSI

C[C@@H](O)[C@@H]1NC(=O)[C@H](CCCCN)NC(=O)[C@H](Cc2c[nH]c3ccccc23)NC(=O)[C@H](Cc2ccccc2)NC(=O)[C@H](Cc2ccccc2)NC(=O)[C@H](CC(N)=O)NC(=O)[C@H](CCCCN)NC(=O)[C@@H](NC(=O)[C@@H]2CCCN2)CSSC[C@@H](C(=O)N[C@@H](CCCCN)C(=O)O)NC(=O)[C@H](CO)NC(=O)[C@H](CO)NC(=O)[C@H](Cc2ccccc2)NC1=O [Cortistatin14, reference compound] (H-PCKNFFWKTFSSCK-OH; disulfide 2-13)
activity at 1 µM (SSTR2; Max Dose 1000 nM): 99.7%
EC50 (SSTR2): 0.00138 µM

CC[C@H](C)[C@@H]([C@@H](CC(=O)N1CCC[C@H]1[C@H](OC)[C@@H](C)C(=O)N[C@H](C)[C@@H](O)c1ccccc1)OC)N(C)C(=O)[C@@H](NC(=O)[C@H](C(C)C)N(C)C(=O)OCc1ccc(NC(=O)[C@H](CCCNC(N)=O)NC(=O)[C@@H](NC(=O)CCCCCN2C(=O)CC(SC[C@H](NC(=O)CCOCCOCCOCCOCCOCCOCCN)C(=O)NCCOCCOCCOCCOCCOCCOCCC(=O)N[C@@H](CCCNC(=N)N)C(=O)N[C@@H](CCCNC(=N)N)C(=O)N[C@@H](CC(C)C)C(=O)N[C@@H](Cc3ccccc3)C(=O)N[C@H]3CSSC[C@@H](C(=O)N[C@H](C(=O)N[C@@H](Cc4c[nH]c5ccccc45)C(=O)N[C@@H](CCCNC(=N)N)C(=O)N[C@@H](CC(=O)O)C(N)=O)[C@@H](C)O)NC(=O)[C@H]([C@@H](C)O)NC(=O)[C@H](CCCCN)NC(=O)[C@@H](Cc4c[nH]c5ccccc45)NC(=O)[C@H](Cc4ccc(O)cc4)NC3=O)C2=O)C(C)C)cc1)C(C)C (stereo partly drawn) [Example 2, PEG6-Cys(MC-Val-Cit-PABC-MMAE)-PEG6-Arg-Arg-Leu-Phe-[Cys-Tyr-D-Trp-Lys-Thr-Cys]-Thr-Trp-Arg-Asp-NH2] (I: H-[PEG6]C[PEG6]RRLFCY[dW]KTCTWRD-NH2 / II: V[Cit][PABC][NMeV]V[Dil][Dolaproine]-X2; linker I:2-II:N via Hexanoyl(6-succinimido-3yl); disulfide I:8-I:13)
activity at 50 µM (SSTR2): 95.4%
EC50 (SSTR2): 0.477 µM

CC[C@H](C)[C@@H]([C@@H](CC(=O)N1CCC[C@H]1[C@H](OC)[C@@H](C)C(=O)N[C@H](C)[C@@H](O)c1ccccc1)OC)N(C)C(=O)[C@@H](NC(=O)[C@H](C(C)C)N(C)C(=O)OCc1ccc(NC(=O)[C@H](CCCNC(N)=O)NC(=O)[C@@H](NC(=O)CCCCCN2C(=O)CC(SC[C@H](NC(C)=O)C(=O)NCCOCCOCCOCCOCCOCCOCCC(=O)N[C@@H](CCCNC(=N)N)C(=O)N[C@@H](CCCNC(=N)N)C(=O)N[C@@H](CC(C)C)C(=O)N[C@@H](Cc3ccccc3)C(=O)N[C@H]3CSSC[C@@H](C(=O)N[C@H](C(=O)N[C@@H](Cc4c[nH]c5ccccc45)C(=O)N[C@@H](CCCNC(=N)N)C(=O)N[C@@H](CC(=O)O)C(N)=O)[C@@H](C)O)NC(=O)[C@H]([C@@H](C)O)NC(=O)[C@H](CCCCN)NC(=O)[C@@H](Cc4c[nH]c5ccccc45)NC(=O)[C@H](Cc4ccc(O)cc4)NC3=O)C2=O)C(C)C)cc1)C(C)C (stereo partly drawn) [Example 3, Ac-Cys(MC-Val-Cit-PABC-MMAE)-PEG6-Arg-Arg-Leu-Phe-[Cys-Tyr-D-Trp-Lys-Thr-Cys]-Thr-Trp-Arg-Asp-NH2] (I: Ac-C[PEG6]RRLFCY[dW]KTCTWRD-NH2 / II: V[Cit][PABC][NMeV]V[Dil][Dolaproine]-X2; linker I:1-II:N via Hexanoyl(6-succinimido-3yl); disulfide I:7-I:12)
activity at 50 µM (SSTR2): 95.4%
EC50 (SSTR2): 0.559 µM

CC[C@H](C)[C@@H]([C@@H](CC(=O)N1CCC[C@H]1[C@H](OC)[C@@H](C)C(=O)N[C@H](C)[C@@H](O)c1ccccc1)OC)N(C)C(=O)[C@@H](NC(=O)[C@H](C(C)C)N(C)C(=O)OCc1ccc(NC(=O)[C@H](CCCNC(N)=O)NC(=O)[C@@H](NC(=O)CCCCCN2C(=O)CC(SC[C@H](NC(C)=O)C(=O)NCCOCCOCC(=O)NCCOCCOCC(=O)NCCOCCOCC(=O)N[C@@H](CCCNC(=N)N)C(=O)N[C@@H](CCCNC(=N)N)C(=O)N[C@@H](CC(C)C)C(=O)N[C@@H](Cc3ccccc3)C(=O)N[C@H]3CSSC[C@@H](C(=O)N[C@H](C(=O)N[C@@H](Cc4c[nH]c5ccccc45)C(=O)N[C@@H](CCCNC(=N)N)C(=O)N[C@@H](CC(=O)O)C(N)=O)[C@@H](C)O)NC(=O)[C@H]([C@@H](C)O)NC(=O)[C@H](CCCCN)NC(=O)[C@@H](Cc4c[nH]c5ccccc45)NC(=O)[C@H](Cc4ccccc4)NC3=O)C2=O)C(C)C)cc1)C(C)C (stereo partly drawn) [Example 8, Ac-Cys(MC-Val-Cit-PABC-MMAE)-AEEA-AEEA-AEEA-Arg-Arg-Leu-Phe-[Cys-Phe-D-Trp-Lys-Thr-Cys]-Thr-Trp-Arg-Asp-NH2] (I: Ac-C[AEEA][AEEA][AEEA]RRLFCF[dW]KTCTWRD-NH2 / II: V[Cit][PABC][NMeV]V[Dil][Dolaproine]-X2; linker I:1-II:N via Hexanoyl(6-succinimido-3yl); disulfide I:9-I:14)
activity at 50 µM (SSTR2): 98.4%
EC50 (SSTR2): 0.404 µM

CC(C)C[C@H](NC(=O)CNC(=O)c1cc(Cl)ccc1Cl)B1OC(=O)C(CC(=O)O)(CC(=O)O)O1 [Ixazomib Citrate]
T/C [1, 2]: 38.38%
TGI [1, 2]: 71.76%
Tumor Volume (Mean ± SEM) ([1]; Day 0): 109 ± 6 mm3
Tumor Volume (Mean ± SEM) ([1]; Day 4): 245 ± 23 mm3
Tumor Volume (Mean ± SEM) ([1]; Day 7): 337 ± 25 mm3
Tumor Volume (Mean ± SEM) ([1]; Day 11): 452 ± 59 mm3
Tumor Volume (Mean ± SEM) ([1]; Day 14): 586 ± 100 mm3
Tumor Volume (Mean ± SEM) ([1]; Day 18): 781 mm3 and 781 ± 177 mm3
Tumor Volume (Mean ± SEM) ([1]; Day 21): 925 ± 226 mm3
Tumor Volume (Mean ± SEM) ([1]; Day 25): 1,139 ± 271 mm3
Tumor Volume (Mean ± SEM) ([1]; Day 28): 1,365 ± 331 mm3

CC(C)C[C@H](NC(=O)[C@H](CCCNC(=N)N)NC(=O)[C@@H](N)CCCNC(=N)N)C(=O)N[C@@H](Cc1ccccc1)C(=O)N[C@H]1CSSC[C@@H](C(=O)N[C@H](C(=O)N[C@@H](Cc2c[nH]c3ccccc23)C(=O)N[C@@H](CCCNC(=N)N)C(=O)N[C@@H](CC(=O)O)C(N)=O)[C@@H](C)O)NC(=O)[C@H]([C@@H](C)O)NC(=O)[C@H](CCCCN)NC(=O)[C@@H](Cc2c[nH]c3ccccc23)NC(=O)[C@H](Cc2ccc(O)cc2)NC1=O [SEQ ID No. 1, H-Arg-Arg-Leu-Phe-[Cys-Tyr-D-Trp-Lys-Thr-Cys]-Thr-Trp-Arg-Asp-NH2] (H-RRLFCY[dW]KTCTWRD-NH2; disulfide 5-10)
activity at 100 µM (SSTR2; Max Dose 100000 nM): 98%
EC50 (SSTR2): 0.217 µM
